What is called Km is the substrate concentration at which the rate is half of its maximum.

Results on 1 compound are retold here after publication PMC12225012, “Identification and Application of a Novel Patulin Degrading Enzyme From Meyerozyma guilliermondii” (Advanced Science, 2025).

SMILES strings stand for the structures.

The assay addresses T1, MgSDR1 (Meyerozyma guilliermondii, UniProt A5DPG9).
T1 construct: gene PGUG_05170; pET-30a(+) BamHI/XhoI, N-terminal 6xHis tag, E. coli Rosetta (DE3), imidazole-eluted, approx. 40 kDa with tag; catalytic triad Ser174-Tyr188-Lys192; GXXXGXG and YXXXK motifs
In words: degradation kinetics (details in supplement). The assay is classed as biochemical. The settings on record: co-substrate NADPH; pH and temperature of the kinetic assay not given in the main text.

T1 sequence (A5DPG9 entry or part of it): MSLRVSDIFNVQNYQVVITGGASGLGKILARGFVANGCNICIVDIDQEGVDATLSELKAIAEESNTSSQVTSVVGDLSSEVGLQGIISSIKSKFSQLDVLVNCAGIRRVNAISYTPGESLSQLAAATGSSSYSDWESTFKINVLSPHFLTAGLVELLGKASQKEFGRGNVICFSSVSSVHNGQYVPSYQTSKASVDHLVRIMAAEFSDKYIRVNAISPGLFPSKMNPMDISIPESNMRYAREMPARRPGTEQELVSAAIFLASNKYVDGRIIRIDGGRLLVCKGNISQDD

With `O=C1C=C2C(=CCOC2O)O1` (stereo not shown) [PAT], the Km came out at 1420 µM.
